Measurements: the supplement of paper PMC10307832

Assays:
Test in all cases: relative viability (nuclei count vs DMSO), 5 days (fraction); higher = more cells survive
[1] = compound: C1=CC2=C(C=C(C(=C2N=C1)O)N=NC3=CC4=C(C=C3)C=C(C=C4)S(=O)(=O)O)S(=O)(=O)O + Cc1cc(Nc2cc(N3CCN(C)CC3)nc(Sc3ccc(NC(=O)C4CC4)cc3)n2)n[nH]1 [Tozasertib] (partner 0.1 µM)
Summary of the method: (§1)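 The day after seeding in 1536-well plates, lung cancer cell lines were treated by pin tool with a single drug, or with a fixed anchor-drug dose together with five library-drug doses (not always all listed) in √10 steps. After 5 days, a combined fix-and-stain solution (final 0.05% Triton X-100, 1% formaldehyde, 1 ug/ml Hoechst) was added. Nuclei counted on 4× images gave relative viability as treated counts over vehicle counts, reported as the median of duplicate plates.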

[2] = compound: C1=CC2=C(C=C(C(=C2N=C1)O)N=NC3=CC4=C(C=C3)C=C(C=C4)S(=O)(=O)O)S(=O)(=O)O + N=C(N)NC(=N)NCCc1ccccc1 [Phenformin] (partner 250 µM)
Summary of the method: as §1

AT-7519 + Bortezomib = compound: O=C(NC1CCNCC1)c1n[nH]cc1NC(=O)c1c(Cl)cccc1Cl [AT-7519] + CC(C)C[C@H](NC(=O)[C@H](Cc1ccccc1)NC(=O)c1cnccn1)B(O)O [Bortezomib] (partner 0.002 µM)
Summary of the method: as §1

AT-7519 + Lapatinib = compound: O=C(NC1CCNCC1)c1n[nH]cc1NC(=O)c1c(Cl)cccc1Cl [AT-7519] + CS(=O)(=O)CCNCc1ccc(-c2ccc3ncnc(Nc4ccc(OCc5cccc(F)c5)c(Cl)c4)c3c2)o1 [Lapatinib] (partner 2 µM)
Summary of the method: as §1

Cell Line | relative viability ([1]; first compound 0.08 µM) | relative viability ([1]; first compound 0.253 µM) | relative viability ([1]; first compound 0.8 µM) | relative viability ([1]; first compound 2.53 µM) | relative viability ([1]; first compound 8 µM) | relative viability ([2]; first compound 0.08 µM) | relative viability ([2]; first compound 0.253 µM) | relative viability ([2]; first compound 0.8 µM) | relative viability ([2]; first compound 2.53 µM) | relative viability ([2]; first compound 8 µM) | relative viability (AT-7519 + Bortezomib; first compound 0.01 µM) | relative viability (AT-7519 + Bortezomib; first compound 0.03162 µM) | relative viability (AT-7519 + Bortezomib; first compound 0.3162 µM) | relative viability (AT-7519 + Bortezomib; first compound 1 µM) | relative viability (AT-7519 + Lapatinib; first compound 0.01 µM) | relative viability (AT-7519 + Lapatinib; first compound 0.03162 µM) | relative viability (AT-7519 + Lapatinib; first compound 0.3162 µM) | relative viability (AT-7519 + Lapatinib; first compound 1 µM)
NCI-H2405 | 0.894 | 0.811 | 0.782 | 0.82 | 0.711 | 0.382 | 0.384 | 0.371 | 0.342 | 0.362 | 0.978 | 1.04 | 1.02 | 0.863 | 1.04 | 1.04 | 1.03 | 0.719
NCI-H3122 | 0.371 | 0.37 | 0.405 | 0.514 | 0.378 | 0.369 | 0.379 | 0.378 | 0.418 | 0.323 | 1.03 | 1.01 | 1.06 | 0.688 | 1.02 | 0.986 | 1.08 | 0.701
PC-3 [JPC-3] | 0.963 | 0.848 | 0.846 | 0.856 | 0.864 | 0.474 | 0.473 | 0.477 | 0.478 | 0.494 | 0.947 | 0.863 | 0.86 | 0.848 | 0.529 | 0.441 | 0.416 | 0.52
PC-14 | 0.607 | 0.574 | 0.55 | 0.646 | 0.594 | 0.511 | 0.486 | 0.523 | 0.642 | 0.485 | 0.807 | 0.71 | 0.861 | 0.618 | 0.269 | 0.302 | 0.313 | 0.296
RERF-LC-KJ | 0.506 | 0.601 | 0.512 | 0.519 | 0.509 | 0.439 | 0.39 | 0.435 | 0.439 | 0.43 | 1.1 | 1.14 | 1.08 | 0.797 | 0.847 | 0.922 | 0.86 | 0.851
SK-LU-1 | 0.32 | 0.286 | 0.303 | 0.331 | 0.336 | 0.597 | 0.493 | 0.558 | 0.572 | 0.624 | 1.08 | 1.14 | – | 1.15 | 0.726 | 0.943 | 0.766 | 0.506
SW 1573 | 0.164 | 0.185 | 0.187 | 0.181 | 0.0943 | 0.406 | 0.478 | 0.418 | 0.3 | 0.296 | 0.981 | 0.842 | 0.884 | 0.428 | 1.08 | 1.18 | 1.07 | 0.569
